Source: US20100119483A1, “PEPTIDE VIRAL ENTRY INHIBITORS” (Schering Corporation, priority 2004, published 2010)
Where “and” joins values, the source holds several entries; their conditions need not be identical. Equal values may be shown once.

System: HCV pseudoparticles
Experiment: HCV pseudoparticle (HCVpp) entry assay in Huh7 hepatoma cells, luciferase readout
Format: cell-based, hepatitis C virus
Conditions: for % of control at ~30 uM: percentage of hepatitis C virus cellular entry at 30 μM peptide vs uninhibited control; for HCVpp % inh: truncated peptides tested at 50 uM in 1% DMSO
Experimental: HCV pseudotype particle generation. Single cycle HCV pseudoparticles are composed of a replication-defective HIV genome and HCV envelope proteins. These pseudoparticles were made by transfecting 293T cells with 5 ug of each pNL43E-R-luc (Chen et al., J. Virol. 68(2):654-60 (1994)) and plasmid expressing HCV envelope proteins pCMV/E1-2 with profection transfection kit from Promega (Madison, Wis.). The medium was refreshed 12-24 hours after transfection and supernatant was collected 48 hours after transfection. The supernatant from a transfection of only pNL43E-R-luc was used each time as a control for non specific entry events.
Infection of hepatoma cell lines with HCV pseudotype particles and screen for inhibitory peptides. The hepatoma cells, Huh7, was seeded at 8000 cells in 90 ul medium in 96-well plate. In the case of the inhibitor screen, the inhibitor was incubated with cells for one hour at 37° C. and then 50 ul viral supernatant was added to the cells 24 hours after seeding. The viral stock was pre-tittered and diluted to yield approximately 10,000 to 20,000 RLU. The cells were incubated at 37° C. with 5% CO2 for additional 72 hours and were harvested for luciferase assay. Peptide stocks were prepared in 100% DMSO at 10 mg/ml and were first screened at 100 ug/ml and then a dose responsive curve was generated with 10 points 3-fold titration starting from 100 ug/ml.
The peptide of SEQ ID NO: 77 was first serial diluted by the factor of 3 in 100% DMSO from 100 ug/ml and then transferred to the assay plates at 100-fold dilution. The peptide was first incubated with cells and HCVpp (A) or HIVpp (B), respectively, for 30 minutes at […] in this experiment. Then, the medium containing the peptide was removed from the cells and virus with peptide was added to the cells. Cells were incubated for 72 hours and then were harvested for luciferase assay. Two separate trials were performed.
In addition, the peptide of SEQ ID NO: 77 was mutated at several positions and assayed in the HCV entry assay discussed above. […] The assays were performed essentially as described above.

[1] = 0.1 nM of peptide (printed for three rows), two values per peptide and row
[2] = 0.3 nM of peptide, two values per peptide
[3] = 1 nM of peptide, two values per peptide
[4] = 3 nM of peptide, two values per peptide
[5] = 10 nM of peptide, two values per peptide
[6] = 30 nM of peptide, two values per peptide
[7] = 100 nM of peptide, two values per peptide
[8] = 300 nM of peptide, two values per peptide
[9] = 10000 nM of peptide, two values per peptide
[10] = 30000 nM of peptide, two values per peptide

Substance | % of control at ~30 uM | % control (HCVpp entry), proline scanning [1] | % control (HCVpp entry), proline scanning [2] | % control (HCVpp entry), proline scanning [3] | % control (HCVpp entry), proline scanning [4] | % control (HCVpp entry), proline scanning [5] | % control (HCVpp entry), proline scanning [6] | % control (HCVpp entry), proline scanning [7] | % control (HCVpp entry), proline scanning [8] | % control (HCVpp entry), proline scanning [10] | further results
K-I-K-W-E-Y-V-L-L-L-F-L-L [SEQ ID NO: 101] | 4% | – | – | – | – | – | – | – | – | – | % control (HCVpp entry), lysine scanning [1]: 83 % control and 107 % control and 77 % control and 104 % control and 119 % control and 101 % control; % control (HCVpp entry), lysine scanning [2]: 96 % control and 103 % control; % control (HCVpp entry), lysine scanning [3]: 65 % control and 90 % control; % control (HCVpp entry), lysine scanning [4]: 52 % control and 77 % control; % control (HCVpp entry), lysine scanning [5]: 54 % control and 57 % control; % control (HCVpp entry), lysine scanning [6]: 37 % control and 28 % control; % control (HCVpp entry), lysine scanning [7]: 26 % control and 25 % control; % control (HCVpp entry), lysine scanning [8]: 26 % control and 29 % control
A-I-K-W-E-P-V-L-L-L-F-L-L (AIKWEPVLLLFLL; HCV peptide) [SEQ ID NO: 120] | – | 82 % control and 78 % control and 102 % control and 80 % control and 101 % control and 117 % control | 90 % control and 75 % control | 91 % control and 75 % control | 66 % control and 76 % control | 73 % control and 76 % control | 72 % control and 40 % control | 39 % control | 33 % control and 39 % control | 38 % control and 42 % control | % control (HCVpp entry), proline scanning [9]: 24 % control
P-I-K-W-E-Y-V-L-L-L-F-L-L [SEQ ID NO: 99] | 21% | 64 % control and 84 % control and 108 % control and 70 % control and 101 % control and 121 % control | 84 % control and 80 % control | 75 % control and 89 % control | 68 % control and 56 % control | 45 % control and 53 % control | 28 % control and 36 % control | 21 % control and 34 % control | 21 % control and 29 % control | – | % control (HCVpp entry), proline scanning [9]: 24 % control and 16 % control
A-I-K-W-E-Y-A-L-L-L-F-L-L (AIKWEYALLLFLL; HCV peptide) [SEQ ID NO: 92, Ala-scan] | 17% | – | – | – | – | – | – | – | – | – | % control (HCVpp entry), alanine scanning [1]: 73 % control and 115 % control and 82 % control and 89 % control and 99 % control and 130 % control; % control (HCVpp entry), alanine scanning [2]: 85 % control and 61 % control; % control (HCVpp entry), alanine scanning [3]: 90 % control and 80 % control; % control (HCVpp entry), alanine scanning [4]: 68 % control and 99 % control; % control (HCVpp entry), alanine scanning [5]: 82 % control and 59 % control; % control (HCVpp entry), alanine scanning [6]: 42 % control and 64 % control; % control (HCVpp entry), alanine scanning [7]: 32 % control and 25 % control; % control (HCVpp entry), alanine scanning [8]: 21 % control and 30 % control
A-I-K-P-E-Y-V-L-L-L-F-L-L (AIKPEYVLLLFLL; HCV peptide) [SEQ ID NO: 118] | – | 87 % control and 80 % control and 108 % control and 103 % control and 79 % control and 110 % control | 92 % control and 101 % control | 99 % control and 74 % control | 84 % control and 108 % control | 83 % control and 116 % control | 93 % control and 63 % control | 53 % control and 47 % control | 29 % control and 38 % control | 33 % control and 24 % control | –
A-I-K-W-E-Y-V-L-L-L-F-L-L [SEQ ID NO: 106] | – | – | – | – | – | – | – | – | – | – | HCVpp % inh: 92%
A-I-K-W-E-Y-V-L-A-L-F-L-L (AIKWEYVLALFLL; HCV peptide) [SEQ ID NO: 94, Ala-scan] | 17% | – | – | – | – | – | – | – | – | – | % control (HCVpp entry), alanine scanning [1]: 99 % control and 96 % control and 79 % control and 101 % control and 115 % control and 105 % control; % control (HCVpp entry), alanine scanning [2]: 104 % control and 92 % control; % control (HCVpp entry), alanine scanning [3]: 81 % control and 82 % control; % control (HCVpp entry), alanine scanning [4]: 58 % control and 89 % control; % control (HCVpp entry), alanine scanning [5]: 79 % control and 86 % control; % control (HCVpp entry), alanine scanning [6]: 58 % control and 48 % control; % control (HCVpp entry), alanine scanning [7]: 45 % control and 41 % control; % control (HCVpp entry), alanine scanning [8]: 42 % control and 33 % control; % control (HCVpp entry), alanine scanning [9]: 36 % control and 34 % control; % control (HCVpp entry), alanine scanning [10]: 14 % control and 28 % control
S-F-A-I-K-W-E-Y-V-L-L-L-F-L-L [SEQ ID NO: 104] | – | – | – | – | – | – | – | – | – | – | HCVpp % inh: 91%
I-K-W-E-Y-V-L-L-L-F-L-L [SEQ ID NO: 107] | – | – | – | – | – | – | – | – | – | – | HCVpp % inh: 88%
A-I-K-W-E-Y-V-L-L-L-F-L-P [SEQ ID NO: 127] | – | 90 % control and 86 % control and 75 % control and 122 % control and 113 % control | 84 % control and 81 % control | 71 % control and 85 % control | 66 % control and 53 % control | 102 % control and 74 % control | 78 % control and 83 % control | 77 % control and 74 % control | 63 % control and 72 % control | 57 % control and 29 % control | % control (HCVpp entry), proline scanning [9]: 29 % control and 27 % control
A-I-K-W-E-Y-P-L-L-L-F-L-L (AIKWEYPLLLFLL; HCV peptide) [SEQ ID NO: 121] | – | 77 % control and 95 % control and 91 % control and 115 % control and 104 % control and 90 % control | 68 % control and 84 % control | 76 % control and 110 % control | 85 % control and 87 % control | 75 % control and 66 % control | 70 % control and 82 % control | 44 % control and 63 % control | 42 % control and 30 % control | 32 % control and 41 % control | –
